Data on three compounds can be found in patent US20240325539A1, “METHODS AND COMPOSITIONS FOR TREATING EPSTEIN BARR VIRUS-ASSOCIATED CANCER” (The Chancellor, Masters and Scholars of the University of …, priority 2020, published 2024).

Data set [1] concerns AGS-EBV cells. In words: Zta expression (immunofluorescence and Western blot). In kind it is cell-based, human. The conditions noted are these: for Zta expression: 5 μM SAHA, 5 μM chidamide, 2.5 μM CXD101. As for the experimental part:
(§1) Protein concentration was determined by the Bradford assay.
A general note: Immunoblotting shows a protein as a band on a membrane.

The test system of the next data set is NCC-24 cells. The data set is described as follows: Western blot for p53 and Zta. Type of data set: cell-based, human. The following applies: NCC-24, mutant TP53 (G266R and R273H).
The test system of data set [2] is AGS-EBV cells. The data set is described as follows: RT-qPCR of EBV lytic genes. Type of data set: cell-based, human. From the text: RNA was extracted from cells using the RNeasy Mini Kit (Qiagen), following the manufacturer's instructions. Possible contamination with genomic DNA was removed by treatment with DNase I according to the manufacturer's instructions. One μg was used to generate cDNA using the SuperScript Reverse Transcriptase III System following the manufacturer's instructions. QuantiTect SYBR Green PCR Kit was used to perform RT-qPCR using the StepOnePlus real-time PCR system (Applied Biosystems). Reactions were performed in duplicate and in a final volume of 20 μL. Relative mRNA abundances were normalized to endogenous glyceraldehyde 3-phosphate dehydrogenase (GAPDH) mRNA levels. Shown qPCR results were analyzed by the ΔΔCt-method, with the threshold cycles being determined by the Applied Biosystems software.

Data set [3] relates to YCCEL1 cells. In words: High content imaging of Zta-positive cells (immunofluorescence).
Protocol: Cells were seeded on 13 mm coverslips or 96 well-plates 24 h prior to the treatment. After washing with PBS, cells were fixed by the addition of 4% formaldehyde (Life Technologies) in PBS for 10 min, washed three times with PBS, and incubated with 0.1% Triton X-100 for 20 min. After three more washes, coverslips were incubated with Signal Enhancer for 30 min. Following one wash, cells were incubated with the primary antibody diluted in antibody diluent (Dako) with a background reducing agent for 90 min. After washing three times, coverslips were incubated with a secondary antibody solution containing DAPI diluted in antibody diluent for 1 h in the dark. Coverslips were washed three times with PBS and once in purified water before coverslips were mounted on Polysine Microscope Adhesion slides with ProLong Gold Antifade Mountant (Life Technologies). Cells affixed on slides were visualized using a Zeiss LSM 710 laser scanning confocal microscope, while cells on 96 well plates were visualized using the Operetta High Content Screening System (PerkinElmer).
Experiments were run in duplicate. Liquid handling for cell plating, drug treatment, and cell fixation was performed using a JANUS PerkinElmer Automated Workstation (PerkinElmer). […] All other staining steps were performed with a FlexDrop PLUS (PerkinElmer). Cells were visualized using a GE IN Cell Analyzer 6000 (GE Healthcare Life Sciences) with a 10× objective. Percentages of Zta-positive cells within the wells were assessed with a protocol established within the Columbus software (PerkinElmer).
The readout was percentage of cells positive for the immediate-early viral transcription factor Zta, as assessed by immunofluorescence staining and confocal microscopy.
Data set [4] deals with AGS-EBV cells. The data set is described as follows: Killing of AGS-EBV cells by Zta-specific TCR-T cells (IncuCyte, Cytotox Red). Type of data set: cell-based, human. The following applies: for cell death of AGS-EBV cells: HDACi pre-treatment, then primary T cells expressing TCR4, after 8 h of co-culture, compared to DMSO. As for the experimental part:
EBV+GC cells were treated with either 2.5 μM of CXD101, 5 μM of chidamide, or 5 μM of SAHA, and DMSO was used as a negative control. Approximately 10×10^5 AGS-EBV cells were plated in […] the day before treatment to allow 50% confluence. The next day, the media was removed, and the cells were treated for 48 hours with the HDACi or DMSO. After 48 hours, the cells were dissociated with trypsin-EDTA and counted. The dissociated cells were plated in the wells of a flat-bottomed 96-well plate and left to adhere for 4-6 hours before the addition of Zta-specific T cells. The IncuCyte S3 Live-Cell analysis system was used to analyze the interactions between the T cells and the HDACi-treated gastric cells over a period of 24 hours. The cells were cultured at an E:T ratio of 10:1. The IncuCyte® Cytotox Red Reagent for counting dead cells was added to each well at the start of incubation. The treated AGS-EBV cells were co-cultured with the HLA-A*02:01-restricted TCR4 primary T cell clones and the HLA-mismatched control clone, TCR9. After 24 hours of incubation, the supernatant was removed from the wells for quantification of cytokines. The ability of the clones to kill the target cells was assessed using the automated IncuCyte analysis software. The Cytotox Red apoptosis marker that was added to the wells at the start of co-culture was taken up by dead cells, and the overlap area of this red fluorescence with larger, very bright GFP cells was measured in μm^2 per replicate well at each set time point.

In another data set the test system is PD-LCL cells. In words: Western blot for Zta in lymphoblastoid cell line. In kind it is cell-based, human. The following applies: detectable in DMSO treated cells. As for the experimental part:
as §1
(§2) CXD101 is currently undergoing clinical trials (Eyre, T. A., et al. (2019). Cancer 125, 99-108.), and chidamide is approved in China by the National Medical Products Administration (NMPA) for treatment of peripheral T-cell lymphoma (Xu, Y., et al. (2017). Drugs of Today; 53.) and breast cancer (Jiang, Z., et al. (2018). Annals of Oncology; 29.). Therefore, chidamide and CXD101 were used to treat naturally-infected Burkitt lymphoma cell lines Namalwa, Raji, and Akata, or the ex vivo infected lymphoblastoid cell line PD-LCL in parallel with YCCEL1 cells. Romidepsin was used to treat the same panel of cells. […] Zta expression level in ex vivo infected B cell line PD-LCL is detectable in DMSO treated cells and it is not affected after HDACi treatment. All HDACis used induced detectable amounts of H3-ac, with cell line-dependent variation (FIG. 1E). To assess the extent of EBV reactivation, mRNA expression of several immediate-early, early, and late lytic genes was analysed (FIG. 9E). […] Up to 5-10% of YCCEL1 and SNU719 cells were positive for late Viral Capsid Antigen (VCA) after chidamide or CXD101 treatment, but not SAHA-treatment. […] Both benzamide- and hydroxymate-based HDACi can induce EBV reactivation in gastric epithelial cancer cells, but benzamide-based HDACis are generally less toxic than hydroxymate-based HDACi.

Data set [5] concerns YCCEL1 cells. Type of data set: cell-based, human.
Data set [6] concerns Burkitt lymphoma cell lines Namalwa, Raji, and Akata. In words: Western blot for Zta and H3-ac in Burkitt lymphoma cell lines. In kind it is cell-based, human. The following applies: naturally infected Burkitt lymphoma cell lines. As for the experimental part:
as §1, §2

For data set [7], the system named is PBMCs from an EBV+ healthy donor. In words: IFNγ ELISpot of ex vivo EBV-specific CD8+ T cell responses. Type of data set: cell-based, human. The following applies: PBMCs with pool of EBV epitopes, 12 hours; range of doses. From the text:
To be able to effectively “kick” EBV+GC cells into Zta+ abortive EBV reactivation lytic cycle presented us with an opportunity to “kill” the reactivated EBV+ cancer cells by harnessing the host's immune system, Zta specific T cells in particular as Zta is highly immunogenic (Pudney, V. A., et al. (2005). J Exp Med 201, 349-360) and many EBV seropositive individuals have Zta memory T cells. This study was set out to test whether HDACi have any direct impacts on CD8+ T cell responses to EBV viral antigens. Peripheral blood mononuclear cells (PBMCs) from an EBV+ healthy donor were stimulated with a pool of pre-determined EBV epitopes in the presence or absence of HDACi for 12 hours, and ex vivo EBV-specific CD8+ T cell responses were determined by an IFNγ ELISpot assay. […] In parallel, the optimal dose of each HDACi for AGS-EBV to minimize cell toxicity versus their ability to induce Zta expression was determined (FIG. 15A). To provide a proof of principle, whether reactivation of Zta by HDACi could sensitize tumor cells for recognition and killing by Zta-specific CD8+ T cells was subsequently tested. […] The TCR gene was retrovirally transduced into a TCR-negative T cell line (SKW3) or primary human CD8+ T cells for functional readouts, including cytokine production and killing of the tumor cells.

Data set [8] has as its system YCCEL1 cells. The data set is described as follows: Western blot for Zta and total acetylation of histone 3. Type of data set: cell-based, human. The conditions noted are these: FIGS. 1C and 9D (YCCEL1; SNU719). As for the experimental part:
as §1

Turning to `COc1ccc(C2=N[C@@H](c3ccc(Cl)cc3)[C@@H](c3ccc(Cl)cc3)N2C(=O)N2CCNC(=O)C2)c(OC(C)C)c1` [nutlin-3a], the “Zta expression (Western blot)” value in the data set on AGS-EBV cells [1] (agent alone) is on record as “able to induce high levels of Zta expression”. Moreover, in the data set on NCC-24 cells, the Zta expression entry was “failed to express Zta”.

`Cc1nn(C)cc1CN1CCC(c2ccc(C(=O)Nc3ccccc3N)cc2)CC1` [CXD101]: the “activation of lytic genes” value with AGS-EBV cells [2] is “comparable activation of lytic genes”. The Zta expression entry in the data set with AGS-EBV cells [1] is “strong activation of Zta expression”; in data set [6] it was “none of these HDACi induced Zta expression”. For the same compound, the “Zta+ cells” value with YCCEL1 cells [3] (5 μM) was 36.5%; in the data set with YCCEL1 cells [3] (10 μM), 40.7%. In the data set on YCCEL1 cells [3] (increasing concentrations (FIG. 1B)), the “Zta expression / EBV reactivation” value was “strong dose-dependent effect on Zta expression”. Also, in the data set on AGS-EBV cells [4] (AGS-EBV, compared to SAHA (P<0.01)), the “toxicity induced by T cells” value is reported as “more pronounced”. In the data set on AGS-EBV cells [4], the “cell death of AGS-EBV cells” value was “dramatic increase in cell death”. Besides, the Zta expression level result with PD-LCL cells was “not affected”. Also, in the data set with YCCEL1 cells [5], the “toxicity (cell number relative to DMSO)” value is “low toxicity”. For the same compound, the “effect on T cell responses to EBV antigens” value in data set [7] is given as “little, if any, inhibitory effect”.

With `O=C(CCCCCCC(=O)Nc1ccccc1)NO` [SAHA], the “activation of lytic genes” value in the data set with AGS-EBV cells [2] was “comparable activation of lytic genes”. Also, the Zta expression result in the data set with AGS-EBV cells [1] is given as “strong activation of Zta expression”. The “cell death of AGS-EBV cells” value in the data set with AGS-EBV cells [4] is listed as “dramatic increase in cell death”. Also, in the data set with YCCEL1 cells [8], the “induction of Zta expression (Western blot)” value was “failure” and the “total histone 3 acetylation (H3-ac)” value is “induced detectable H3-ac”.
